Results taken from patent US20250127874A1, “CMV EPITOPES” (The Council of the Queensland Institute of Medical Research, priority 2016, published 2025).

Tested on: CD8+ T cells
Assay: PBMC from HSCT recipients stimulated with HLA-matched peptide epitopes, cultured two weeks with IL-2, IFN-γ production by CD8+ T cells on recall
Excerpt: To assess the impact of epitope variation and co-infection on IE-1 specific T cell immunity, PBMC samples from HSCT recipients showing evidence of viral reactivation were stimulated with all potentially HLA-matched variant peptide epitopes then cultured in vitro for two weeks in the presence of IL-2. PBMC from nine HSCT recipients showing immune reconstitution with no evidence of CMV reactivation were also stimulated with HLA-matched variant peptide epitopes (Table 2). As a control, PBMC were stimulated with at least two conserved HLA matched epitopes.

Row | Sequence | T cell response against epitope (HLA B44-positive HSCT recipients with reactivation (7)) | T cell response against epitope (recipient 17 (HLA-B8), longitudinal analysis during and after viral reactivation)
1 | EDAIAAYTL (Cytomegalovirus) | failed to induce a significant T cell response in any recipient | –
2 | VTEHDTTLY | – | absence of a detectable response
